Experimental data taken from patent US9144239B2, “Macrocyclic picolinamides as fungicides” (DOW AGROSCIENCES LLC, priority 2012, dated 2015).
Where two headings read alike, the source gives them in different places. Each block holds one molecule with its values, some of them ahead of it.

Experiments:
[1] = tested on: Puccinia triticina; synonym: Puccinia recondita f. sp. tritici; assay: Fungicidal activity: wheat brown rust (PUCCRT), wheat seedlings; format: in vivo
Outline: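 Wheat (Yuma) seedlings at first-leaf stage, inoculated with Puccinia triticina spores before or after treatment, held overnight in dark dew room at 22° C, 100% RH, then greenhouse at 24° C. Acetone solutions diluted with nine volumes water containing 110 ppm Triton X-100, sprayed to run-off. Percent disease control derived from severity (0–100%) relative to untreated plants.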

[2] = tested on: Mycosphaerella graminicola; anamorph: Septoria tritici; assay: Fungicidal activity: leaf blotch of wheat (SEPTTR), wheat seedlings; format: in vivo; details: Zymoseptoria tritici
Outline: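 Compounds in acetone were diluted with nine volumes of water containing 110 ppm Triton X-100 and sprayed to run-off on Yuma wheat seedlings at first-leaf stage. Septoria tritici spores were inoculated before or after treatment, followed by dew chambers at 100% RH and 20 °C, then greenhouse at 20 °C. Severity (0–100%) was scored once untreated plants were fully diseased; control was calculated relative to untreated plants.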

[3] = tested on: Puccinia triticina; synonym: Puccinia recondita f. sp. tritici; assay: Fungicide mobility (dropline mobility test): wheat brown rust (PUCCRT); format: in vivo; details: 1 ug/leaf
Procedure: Evaluation of Fungicide Mobility: Wheat Brown Rust (Puccinia triticina; Synonym: Puccinia recondita f. sp. tritici; Bayer Code PUCCRT) “Yuma” wheat seedlings were used in the test. One mg of compound was dissolved in 9 μl of EC blank (emulsifiable concentrate) and 500 μl of acetone. Acetone was then evaporated overnight by leaving the vial open in a fume hood. Two milliliters of water containing 110 ppm Triton X-100 was added to each vial to prepare application solutions. A 2 μl drop of formulated material was applied to a marked line on the adaxial surface 5 cm from the leaf tip of the primary leaves. The primary leaves were kept in a horizontal position. Each treatment had 6 replicates. Plants were inoculated with PUCCRT 1-day after (1DPM) or 3-day prior to (3DCM) compound applications. When rust was fully expressed on primary leaves on control plants, the zone of treated leaves that was disease-free in the acropetal direction was measured with a ruler and converted to percent of the distance from marked line to leaf tip.

[4] = 72 h, read-out: Disease Control PUCCRT 3DC
[5] = 24 h, read-out: Disease Control SEPTTR 1DP
[6] = 72 h, read-out: Disease Control SEPTTR 3DC
[7] = 24 h, 100 ppm, 1 Day Protectant, wheat, read-out: Disease Control PUCCRT 1DP
[8] = 72 h, 100 ppm, 3 Day Curative, wheat, read-out: Disease Control PUCCRT 3DC
[9] = 24 h, 100 ppm, 1 Day Protectant, wheat, read-out: Disease Control SEPTTR 1DP
[10] = 72 h, 100 ppm, 3 Day Curative, wheat, read-out: Disease Control SEPTTR 3DC
[11] = 24 h, read-out: Disease Control PUCCRT 1DP

Compound: CCCCO[C@H]1COC[C@H](NC(=O)c2nccc(OC)c2O)C(=O)O[C@@H](C)[C@@H]1OCCOC [Compound 52, N-((3S,7S,8S,9S)-7-butoxy-8-(2-methoxyethoxy)-9-methyl-2-oxo-1,5-dioxonan-3-yl)-3-hydroxy-4-methoxypicolinamide]
melting point: 75 to 77 °C
pest or weed control at 100 ppm [1, 4]: 80 to 100%
pest or weed control at 100 ppm [2, 5]: 0 to 80%
pest or weed control at 100 ppm [2, 6]: 0 to 80%

melting point: 227 to 229 °C
Compound: C[C@@H]1OC(=O)[C@@H](N)COC[C@H](Oc2ccccc2)[C@H]1Oc1ccccc1.Cl

melting point: 69 to 71 °C
Compound: C[C@@H]1OC(=O)[C@@H](NC(=O)OC(C)(C)C)COC[C@H](OCc2ccccc2)[C@H]1OCc1ccccc1 [Compound 93, tert-butyl ((3S,7S,8S,9S)-7,8-bis(benzyloxy)-9-methyl-2-oxo-1,5-dioxonan-3-yl)carbamate]

Compound: CCC(C)(C)O[C@H]1COC[C@H](NC(=O)c2nccc(OC)c2O)C(=O)O[C@@H](C)[C@@H]1OCC(C)C [Compound 71, 3-hydroxy-N-((3S,7S,8S,9S)-8-isobutoxy-9-methyl-2-oxo-7-(tert-pentyloxy)-1,5-dioxonan-3-yl)-4-methoxypicolinamide]
melting point: 138 to 140 °C
pest or weed control at 100 ppm [1, 7]: 80 to 100%
pest or weed control at 100 ppm [1, 8]: 0 to 80%
pest or weed control at 100 ppm [2, 9]: 80 to 100%
pest or weed control at 100 ppm [2, 10]: 0 to 80%

melting point: 207 to 208 °C
Compound: COc1ccc(O[C@H]2[C@H](C)OC(=O)[C@@H](N)COC[C@@H]2OC(=O)C(C)C)cc1.Cl

melting point: 197 to 198 °C
Compound: COc1ccc(O[C@H]2COC[C@H](N)C(=O)O[C@@H](C)[C@@H]2OC(=O)C(C)C)cc1.Cl

melting point: 110 to 112 °C
Compound: C[C@@H]1OC(=O)[C@@H](N(C(=O)OC(C)(C)C)C(=O)OC(C)(C)C)COC[C@H](O)[C@H]1Oc1ccccc1 [Compound 249]

Compound: C=CCO[C@H]1[C@H](C)OC(=O)[C@@H](NC(=O)c2nccc(OC)c2O)COC[C@@H]1OCCCC [Compound 43, N-((3S,7S,8S,9S)-8-(allyloxy)-7-butoxy-9-methyl-2-oxo-1,5-dioxonan-3-yl)-3-hydroxy-4-methoxypicolinamide]
melting point: 101 to 103 °C
pest or weed control at 100 ppm [1, 7]: 80 to 100%
pest or weed control at 100 ppm [1, 8]: 80 to 100%
pest or weed control at 100 ppm [2, 9]: 80 to 100%
pest or weed control at 100 ppm [2, 10]: 0 to 80%

melting point: 212 °C
Compound: Cc1cc(C)cc(O[C@H]2[C@H](C)OC(=O)[C@@H](N)COC[C@@H]2Oc2cc(C)cc(C)c2)c1.Cl

melting point: 108 °C
Compound: CC(C)CO[C@H]1[C@H](C)OC(=O)[C@@H](N(C(=O)OC(C)(C)C)C(=O)OC(C)(C)C)COC[C@@H]1Oc1ccc(F)cc1 [Compound 246]

melting point: 54 to 60 °C
Compound: COc1ccnc(C(=O)N[C@H]2COC[C@H](OCC3CC3)[C@@H](OCC3CC3)[C@H](C)OC2=O)c1OC(C)=O [Compound 232]
pest or weed control at 100 ppm [1, 7]: 80 to 100%
pest or weed control at 100 ppm [1, 8]: 80 to 100%
pest or weed control at 100 ppm [2, 9]: 80 to 100%
pest or weed control at 100 ppm [2, 10]: 0 to 80%

melting point: 168 to 169 °C
Compound: CC(C)CO[C@H]1COC[C@H](N)C(=O)O[C@@H](C)[C@@H]1Oc1cccc(Cl)c1.Cl

melting point: 90 to 91 °C
Compound: C=C(C)CO[C@H]1[C@H](C)OC(=O)[C@@H](NC(=O)OCc2ccccc2)COC[C@@H]1OCC(=C)C [Compound 126, benzyl (3S,7S,8S,9S)-9-methyl-7,8-bis(2-methylallyloxy)-2-oxo-1,5-dioxonan-3-ylcarbamate]

melting point: 66 to 68 °C
Compound: C=C(C)CO[C@H]1COC[C@H](NC(=O)OCc2ccccc2)C(=O)OC[C@@H]1OCC(=C)C [Compound 186]

Compound: CCCCO[C@H]1COC[C@H](NC(=O)c2nccc(OC)c2O)C(=O)O[C@@H](C)[C@@H]1OC [Compound 36, N-((3S,7S,8S,9S)-7-butoxy-8-methoxy-9-methyl-2-oxo-1,5-dioxonan-3-yl)-3-hydroxy-4-methoxypicolinamide]
melting point: 118 to 120 °C
pest or weed control at 100 ppm [1, 7]: 80 to 100%
pest or weed control at 100 ppm [1, 8]: 80 to 100%
pest or weed control at 100 ppm [2, 9]: 0 to 80%
pest or weed control at 100 ppm [2, 10]: 0 to 80%

Compound: CCCCO[C@H]1COC[C@H](NC(=O)c2nccc(OC)c2O)C(=O)O[C@@H](C)[C@@H]1OCc1ccccc1 [Compound 33, N-((3S,7S,8S,9S)-8-(benzyloxy)-7-butoxy-9-methyl-2-oxo-1,5-dioxonan-3-yl)-3-hydroxy-4-methoxypicolinamide]
melting point: 117 to 119 °C
pest or weed control at 100 ppm [1, 11]: 80 to 100%
pest or weed control at 100 ppm [1, 4]: 80 to 100%
pest or weed control at 100 ppm [2, 5]: 80 to 100%
pest or weed control at 100 ppm [2, 6]: 0 to 80%

melting point: 92 to 97 °C
Compound: COc1ccnc(C(=O)N[C@@H]2COC[C@H](OCC(C)C)[C@@H](OCC(C)C)COC2=O)c1O [Compound 10]
pest or weed control at 100 ppm [1, 7]: 0 to 80%
pest or weed control at 100 ppm [1, 8]: 0 to 80%
pest or weed control at 100 ppm [2, 9]: 0 to 80%
pest or weed control at 100 ppm [2, 10]: 0 to 80%

melting point: 108 to 110 °C
Compound: C=C(C)CO[C@@H]1[C@@H](OCC(=C)C)COC[C@H](NC(=O)OCc2ccccc2)C(=O)O[C@H]1CC [Compound 88, benzyl ((3S,7S,8S,9S)-9-ethyl-7,8-bis((2-methylallyl)oxy)-2-oxo-1,5-dioxonan-3-yl)carbamate]

melting point: 197 to 200 °C
Compound: CC(C)CO[C@H]1[C@H](C)OC(=O)[C@@H](N)COC[C@@H]1Oc1ccc(F)cc1.Cl

Compound: CCCCO[C@H]1[C@H](C)OC(=O)[C@@H](NC(=O)c2nccc(OC)c2O)COC[C@@H]1OCc1ccccc1 [Compound 32, N-((3S,7S,8S,9S)-7-(benzyloxy)-8-butoxy-9-methyl-2-oxo-1,5-dioxonan-3-yl)-3-hydroxy-4-methoxypicolinamide]
melting point: 105 to 107 °C
pest or weed control at 100 ppm [1, 7]: 80 to 100%
pest or weed control at 100 ppm [1, 8]: 80 to 100%
pest or weed control at 100 ppm [2, 9]: 80 to 100%
pest or weed control at 100 ppm [2, 10]: 0 to 80%

Compound: COc1ccnc(C(=O)N[C@H]2COC[C@H](OC(=O)C(C)C)[C@@H](OC(=O)C(C)C)[C@H](C)OC2=O)c1O [Compound 56, (3S,7S,8S,9S)-3-(3-hydroxy-4-methoxypicolinamido)-9-methyl-2-oxo-1,5-dioxonane-7,8-diyl bis(2-methylpropanoate)]
melting point: 111 to 113 °C
pest or weed control at 100 ppm [1, 11]: 80 to 100%
pest or weed control at 100 ppm [1, 4]: 80 to 100%
pest or weed control at 100 ppm [2, 5]: 0 to 80%
pest or weed control at 100 ppm [2, 6]: 80 to 100%

Compound: CCCCO[C@H]1COC[C@H](NC(=O)OC(C)(C)C)C(=O)O[C@@H](C)[C@@H]1OC(=O)C(C)C [Compound 113, (3S,6S,7S,8S)-8-butoxy-3-((tert-butoxycarbonyl)amino)-6-methyl-4-oxo-1,5-dioxonan-7-yl isobutyrate]
melting point: 69 to 71 °C

melting point: 174 to 177 °C
Compound: CCCCO[C@H]1COC[C@H](N)C(=O)O[C@@H](C)[C@@H]1OCc1ccccc1.Cl

melting point: 51 to 54 °C
Compound: CCCCO[C@H]1[C@H](C)OC(=O)[C@@H](NC(=O)OC(C)(C)C)COC[C@@H]1OCc1ccccc1 [Compound 99]

melting point: 79 to 81 °C
Compound: C=C(C)CO[C@H]1[C@H](C)OC[C@H](NC(=O)OCc2ccccc2)C(=O)OC[C@@H]1OCC(=C)C [Compound 127]

melting point: 61 to 70 °C
Compound: COc1ccnc(C(=O)N[C@H]2COC[C@H](OCCC(C)C)[C@@H](OCCC(C)C)[C@H](C)OC2=O)c1O [Compound 210, N-((3S,7S,8S,9S)-7,8-bis(isopentyloxy)-9-methyl-2-oxo-1,5-dioxonan-3-yl)-3-hydroxy-4-methoxypicolinamide]

melting point: 213 to 216 °C
Compound: Cc1ccc(O[C@H]2[C@H](C)OC(=O)[C@@H](N)COC[C@@H]2Oc2ccc(C)cc2)cc1.Cl

Compound: CC(C)CO[C@H]1[C@H](C)OC(=O)[C@@H](N)COC[C@@H]1OCC(C)C [Compound 160, (3S,7S,8S,9S)-3-amino-7,8-diisobutoxy-9-methyl-1,5-dioxonan-2-one]
melting point: 144 to 146 °C

melting point: 217 to 219 °C
Compound: C[C@@H]1OC(=O)[C@@H](N)COC[C@H](Oc2ccccc2)[C@H]1OC1CCCC1.Cl

Compound: COc1ccnc(C(=O)N[C@H]2COC[C@H](OCC(C)C)[C@@H](O)[C@H](C)OC2=O)c1O [Compound 70]
pest or weed control at 1 µg/leaf ([3]; 24 h, 1 Day Protectant Mobility, read-out: Dropline Mobility Test PUCCRT 1DPM): 0 to 80%
pest or weed control at 1 µg/leaf ([3]; 72 h, 3 Day Curative Mobility, read-out: Dropline Mobility Test PUCCRT 3DCM): 0 to 80%
pest or weed control at 100 ppm [1, 7]: 0 to 80%
pest or weed control at 100 ppm [1, 8]: 0 to 80%
pest or weed control at 100 ppm [2, 9]: 0 to 80%
pest or weed control at 100 ppm [2, 10]: 0 to 80%

melting point: 217 to 219 °C
Compound: CCCO[C@H]1[C@H](C)OC(=O)[C@@H](N)COC[C@@H]1Oc1ccccc1.Cl

melting point: 181 to 185 °C
Compound: C[C@@H]1OC(=O)[C@@H](N)COC[C@H](OCC2CC2)[C@H]1OCC1CC1.Cl
